The NIST ThermoML archive (doi:10.1016/j.fluid.2014.04.002)
± gives the expanded uncertainty stated by the source.

Experiment: xn = mol fraction of the nth substance listed
Conditions: 101 kPa, Liquid; for viscosity: Concentric cylinders viscometry; for mass density: Vibrating tube method

COCCOCCOCCOCCOC [2,5,8,11,14-pentaoxapentadecane] + CCOC(=O)C(C)O
Conditions	mass density, 288.15 K [kg/m3]	mass density, 293.15 K [kg/m3]	mass density, 298.15 K [kg/m3]	mass density, 303.15 K [kg/m3]	viscosity, 288.15 K [mPa·s]	viscosity, 293.15 K [mPa·s]	viscosity, 298.15 K [mPa·s]	viscosity, 303.15 K [mPa·s]
x2 = 0	1016.7 ± 0.24	1012.06 ± 0.24	1007.42 ± 0.23	1002.79 ± 0.23	4.353 ± 0.075	3.795 ± 0.065	3.348 ± 0.058	2.983 ± 0.051
x2 = 0.0999	1018.51 ± 0.29	1013.83 ± 0.28	1009.15 ± 0.28	1004.48 ± 0.28	4.303 ± 0.075	3.749 ± 0.065	3.299 ± 0.057	2.933 ± 0.051
x2 = 0.1999	1020.55 ± 0.34	1015.83 ± 0.33	1011.11 ± 0.33	1006.39 ± 0.32	4.265 ± 0.075	3.713 ± 0.065	3.266 ± 0.057	2.9 ± 0.051
x2 = 0.2999	1022.59 ± 0.39	1017.82 ± 0.39	1013.05 ± 0.38	1008.28 ± 0.38	4.226 ± 0.075	3.673 ± 0.065	3.23 ± 0.057	2.864 ± 0.051
x2 = 0.3998	1024.79 ± 0.45	1019.98 ± 0.45	1015.17 ± 0.44	1010.34 ± 0.43	4.176 ± 0.075	3.623 ± 0.065	3.181 ± 0.057	2.815 ± 0.051
x2 = 0.4999	1027.14 ± 0.52	1022.26 ± 0.51	1017.37 ± 0.5	1012.47 ± 0.5	4.109 ± 0.074	3.557 ± 0.064	3.115 ± 0.056	2.752 ± 0.05
x2 = 0.6001	1029.57 ± 0.59	1024.61 ± 0.58	1019.64 ± 0.57	1014.66 ± 0.56	4.027 ± 0.074	3.478 ± 0.064	3.036 ± 0.056	2.681 ± 0.049
x2 = 0.6998	1032.25 ± 0.66	1027.18 ± 0.65	1022.11 ± 0.65	1017.03 ± 0.64	3.906 ± 0.072	3.364 ± 0.062	2.929 ± 0.055	2.58 ± 0.048
x2 = 0.8001	1034.95 ± 0.74	1029.8 ± 0.73	1024.63 ± 0.72	1019.45 ± 0.71	3.746 ± 0.07	3.219 ± 0.061	2.8 ± 0.053	2.463 ± 0.046
x2 = 0.9	1037.37 ± 0.83	1032.09 ± 0.82	1026.8 ± 0.81	1021.49 ± 0.8	3.53 ± 0.067	3.028 ± 0.058	2.633 ± 0.05	2.311 ± 0.044
